Target: T1, recombinant human SAE enzyme (Homo sapiens, UniProt Q9UBT2)
T1 sequence (Q9UBT2 1-640): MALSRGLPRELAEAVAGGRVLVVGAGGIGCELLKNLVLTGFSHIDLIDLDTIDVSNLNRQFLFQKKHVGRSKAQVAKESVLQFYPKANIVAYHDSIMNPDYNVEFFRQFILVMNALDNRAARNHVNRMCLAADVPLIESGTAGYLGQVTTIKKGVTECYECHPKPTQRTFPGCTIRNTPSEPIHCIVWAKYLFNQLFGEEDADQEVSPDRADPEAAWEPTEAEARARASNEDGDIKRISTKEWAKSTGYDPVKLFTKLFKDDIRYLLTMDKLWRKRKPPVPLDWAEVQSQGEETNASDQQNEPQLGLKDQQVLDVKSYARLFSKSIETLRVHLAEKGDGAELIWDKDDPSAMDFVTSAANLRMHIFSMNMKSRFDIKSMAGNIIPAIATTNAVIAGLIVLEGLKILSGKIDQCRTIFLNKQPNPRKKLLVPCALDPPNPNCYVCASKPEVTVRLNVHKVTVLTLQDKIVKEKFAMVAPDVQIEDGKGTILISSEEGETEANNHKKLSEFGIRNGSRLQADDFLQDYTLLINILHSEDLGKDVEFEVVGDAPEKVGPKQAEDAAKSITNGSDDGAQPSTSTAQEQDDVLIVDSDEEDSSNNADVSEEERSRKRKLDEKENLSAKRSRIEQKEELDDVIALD
T1 sequence (Q9UBE0 1-346 partner): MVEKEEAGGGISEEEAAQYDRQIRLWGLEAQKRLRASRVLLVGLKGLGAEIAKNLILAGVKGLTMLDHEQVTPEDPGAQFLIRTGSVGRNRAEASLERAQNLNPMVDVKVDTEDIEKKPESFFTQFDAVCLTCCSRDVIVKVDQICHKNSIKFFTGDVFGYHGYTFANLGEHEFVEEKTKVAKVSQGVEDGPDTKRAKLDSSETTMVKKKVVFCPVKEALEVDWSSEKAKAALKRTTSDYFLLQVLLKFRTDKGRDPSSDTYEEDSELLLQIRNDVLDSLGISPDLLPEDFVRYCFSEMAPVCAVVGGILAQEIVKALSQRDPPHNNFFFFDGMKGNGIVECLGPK
Experiment: SAE HTRF Enzyme Assay
Format: biochemical
Details: for IC50: class symbols A-C; for inhibition at 0.111 µM: compound concentration 0.111 μM, read-out: Percent Inhibition
In short: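 SAE 0.11 nM; ATP 0.5 μM; Sumo-Flag 0.125 μM; Ubc9-GST 0.01 μM; 250 μM GSH, 5 mM MgCl2, pH 7.5. 105 min, 24° C. EDTA/KF stop plus Eu/APC antibodies, 2 h, TR-FRET. % inhibition or IC50.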

Row | SMILES | IC50 [µM] | inhibition at 0.111 µM [%]
1 | NS(=O)(=O)OC[C@H]1C[C@@H](Nc2ncncc2C(=O)c2ccn(Cc3ccc(F)c(C4CC4)c3)n2)C[C@@H]1O [Compound I-301, {(1R,2S,4R)-4-[(5-{[1-(3-cyclopropyl-4-fluorobenzyl)-1H-pyrazol-3-yl]carbonyl}pyrimidin-4-yl)amino]-2-hydroxycyclopentyl}methyl sulfamate] | < 0.01 | 97
2 | NS(=O)(=O)OC[C@H]1C[C@@H](Nc2ncncc2C(=O)c2ccn(Cc3cccc(OC(F)F)c3)n2)[C@@H](F)[C@@H]1O [Compound I-303, [(1R,2R,3R,4R)-4-{[5-({1-[3-(difluoromethoxy)benzyl]-1H-pyrazol-3-yl}carbonyl)pyrimidin-4-yl]amino}-3-fluoro-2-hydroxycyclopentyl]methyl sulfamate] | < 0.01 | 99
3 | COCCn1ccc(C(=O)c2cncnc2N[C@@H]2C[C@H](COS(N)(=O)=O)[C@@H](O)C2)n1 [Compound I-305, {(1R,2S,4R)-2-hydroxy-4-[(5-{[1-(2-methoxyethyl)-1H-pyrazol-3-yl]carbonyl}pyrimidin-4-yl)amino]cyclopentyl}methyl sulfamate] | 0.1 to 1 | 32
4 | Cn1nc(Cn2ccc(C(=O)c3cncnc3N[C@@H]3C[C@H](COS(N)(=O)=O)[C@@H](O)C3)c2)cc1C(F)(F)F [Compound I-306, [(1R,2S,4R)-2-hydroxy-4-({5-[(1-{[1-methyl-5-(trifluoromethyl)-1H-pyrazol-3-yl]methyl) 1H pyrrol-3-yl)carbonyl]pyrmidin-4-yl}amino)cyclopentyl]methyl sulfamate] | < 0.01 | 99
5 | NS(=O)(=O)OC[C@H]1C[C@@H](Nc2ncncc2C(=O)c2ccn(Cc3cc(Cl)ccc3Cl)n2)[C@@H](F)[C@@H]1O [Compound I-307, {(1R,2R,3R,4R)-4-[(5-{[1-(2,5-dichlorobenzyl)-1H-pyrazol-3-yl]carbonyl}pyrimidin-4-yl)amino]-3-fluoro-2-hydroxycyclopentyl}methyl sulfamate] | < 0.01 | 98
6 | Cn1cc(C#CCn2ccc(C(=O)c3cncnc3N[C@@H]3C[C@H](COS(N)(=O)=O)[C@@H](O)C3)n2)cn1 [Compound I-308, [(1R,2S,4R)-2-hydroxy-4-{[5-({1-[3-(1-methyl-1H-pyrazol-4-yl)prop-2-yn-1-yl]-1H-pyrazol-3-yl}carbonyl)pyrimidin-4-yl]amino}cyclopentyl]methyl sulfamate] | 0.1 to 1 | 27
7 | Cc1cc(C(=O)c2cncnc2N[C@@H]2C[C@H](COS(N)(=O)=O)[C@@H](O)C2)nn1Cc1cccc(Br)c1 [Compound I-309, {(1R,2S,4R)-4-[(5-{[1-(3-Bromobenzyl)-5-methyl-1H-pyrazol-3-yl]carbonyl}pyrimidin-4-yl)amino]-2-hydroxycyclopentyl}methyl sulfamate] | < 0.01 | 100
8 | NS(=O)(=O)OC[C@H]1C[C@@H](Nc2ncncc2C(=O)c2cc(Cl)n(Cc3cccc(I)c3)c2)[C@@H](F)[C@@H]1O [Compound I-310, {(1R,2R,3R,4R)-4-[(5-{[5-chloro-1-(3-iodobenzyl)-1H-pyrrol-3-yl]carbonyl}pyrimidin-4-yl)amino]-3-fluoro-2-hydroxycyclopentyl}methyl sulfamate] | < 0.01 | 98
9 | NS(=O)(=O)OC[C@H]1C[C@@H](Nc2ncncc2C(=O)c2ccn(Cc3ccc(Cl)c(Cl)c3)n2)[C@@H](F)[C@@H]1O [Compound I-311, {(1R,2R,3R,4R)-4-[(5-{[1-(3,4-dichlorobenzyl)-1H-pyrazol-3-yl]carbonyl}pyrimidin-4-yl)amino]-3-fluoro-2-hydroxycyclopentyl}methyl sulfamate] | < 0.01 | 98
10 | NS(=O)(=O)OC[C@H]1C[C@@H](Nc2ncncc2C(=O)c2ccn(Cc3cccc(Br)c3)c2)[C@@H](F)[C@@H]1O [Compound I-312, {(1R,2R,3R,4R)-4-[(5-{[1-(3-bromobenzyl)-1H-pyrrol-3-yl]carbonyl}pyrimidin-4-yl)amino]-3-fluoro-2-hydroxycyclopentyl}methyl sulfamate] | < 0.01 | 99
11 | C=CC(=O)Nc1cccc(Cn2ccc(C(=O)c3cncnc3N[C@@H]3C[C@H](COS(N)(=O)=O)[C@@H](O)[C@H]3O)n2)c1 [Compound I-313, [(1R,2R,3S,4R)-4-{[5-({1-[3-(Acryloylamino)benzyl]-1H-pyrazol-3-yl}carbonyl)pyrimidin-4-yl]amino}-2,3-dihydroxycyclopentyl]methyl sulfamate] | < 0.01 | 95
12 | NS(=O)(=O)OC[C@H]1C[C@@H](Nc2ncncc2C(=O)c2ccn(Cc3cc(F)c(F)cc3F)n2)[C@H](O)[C@@H]1O [Compound I-314, {(1R,2R,3S,4R)-2,3-dihydroxy-4-[(5-{[1-(2,4,5-trifluorobenzyl)-1H-pyrazol-3-yl]carbonyl}pyrimidin-4-yl)amino]cyclopentyl}methyl sulfamate] | < 0.01 | 97
13 | NS(=O)(=O)OC[C@H]1C[C@@H](Nc2ncncc2C(=O)c2cc(C(F)(F)F)n(Cc3cccc(Cl)c3)n2)[C@@H](F)[C@@H]1O [Compound I-316, {(1R,2R,3R,4R)-4-[(5-{[1-(3-Chlorobenzyl)-5-(trifluoromethyl)-1H-pyrazol-3-yl]carbonyl}pyrimidin-4-yl)amino]-3-fluoro-2-hydroxycyclopentyl}methyl sulfamate] | < 0.01 | 94
14 | NS(=O)(=O)OC[C@H]1C[C@@H](Nc2ncncc2C(=O)c2ccn(Cc3ccccc3)n2)[C@@H](F)[C@@H]1O [Compound I-317, [(1R,2R,3R,4R)-4-({5-[(1-Benzyl-1H-pyrazol-3-yl)carbonyl]pyrimidin-4-yl}amino)-3-fluoro-2-hydroxycyclopentyl]methyl sulfamate] | < 0.01 | 96
15 | NS(=O)(=O)OC[C@H]1C[C@@H](Nc2ncncc2C(=O)c2ccn(Cc3c(F)c(F)c(F)c(F)c3F)n2)[C@H](O)[C@@H]1O [Compound I-318, {(1R,2R,3S,4R)-2,3-dihydroxy-4-[(5-{[1-(pentafluorobenzyl)-1H-pyrazol-3-yl]carbonyl}pyrimidin-4-yl)amino]cyclopentyl}methyl sulfamate] | < 0.01 | 95
16 | NS(=O)(=O)OC[C@@H]1C[C@@H](Nc2ncncc2C(=O)c2ccn(Cc3cccc(Br)c3)c2)C[C@@H]1O [Compound I-319, {(1S,2S,4R)-4-[(5-{[1-(3-Bromobenzyl)-1H-pyrrol-3-yl]carbonyl}pyrimidin-4-yl)amino]-2-hydroxycyclopentyl}methyl sulfamate] | < 0.01 | 99
17 | NS(=O)(=O)OC[C@H]1C[C@@H](Nc2ncncc2C(=O)c2cc(Cl)n(Cc3ccc(F)c(Br)c3)c2)[C@@H](F)[C@@H]1O [Compound I-320, {(1R,2R,3R,4R)-4-[(5-{[1-(3-bromo-4-fluorobenzyl)-5-chloro-1H-pyrrol-3-yl]carbonyl}pyrimidin-4-yl)amino]-3-fluoro-2-hydroxycyclopentyl}methyl sulfamate] | < 0.01 | 98
